From patent US20230002372A1, “AZAINDOLE CARBOXAMIDE COMPOUNDS FOR THE TREATMENT OF MYCOBACTERIAL INFECTIONS” (THE GLOBAL ALLIANCE FOR TB DRUG DEVELOPMENT, INC., priority 2019, published 2023)
Converted amounts (≈) assume the structure as drawn.

Assays:
[1] = tested on: M tb H37Rv; experiment: MIC determination against M tb H37Rv (green fluorescent protein reporter assay; MIC-MABA); format: cell-based, Mycobacterium tuberculosis; details: Mycobacterium tuberculosis, H37RV, 240 h, read-out: M. TB H37Rv: MIC-MABA: MIC, M. tb H37Rv; 7H9 broth; 10 days exposure; MIC = lowest concentration inhibiting fluorescence by 90%
[2] = tested on: Mycobacterium abscessus; experiment: MIC against Mycobacterium abscessus (Mab_ATCC, MHII broth); format: cell-based; details: Mycobacteroides abscessus; Mycobacterium abscessus ATCC strain; Mueller-Hinton broth (MHII)
Excerpt: Key for Tables: MIC: Minimum Inhibitory Concentration; MABA: microplate-based Alamar Blue assay; Mab: Mycobacterium abscessus; ATCC: American Type Culture Collection; and MHII: Mueller-Hinton broth.

| Compound | MIC [1] | MIC [2] |
| --- | --- | --- |
| Cc1cc(Cl)c2cc(C(=O)NC3CC4CCC3(C)C4(C)C)[nH]c2n1 (stereo not shown) [MPL-195, 4-chloro-6-methyl-N-(1,7,7-trimethylnorbornan-2-yl)-1H-pyrrolo[2,3-b]pyridine-2-carboxamide] | 0.014 µg/mL (≈ 0.0405 µM) | 2 µg/mL (≈ 5.78 µM) |
| C[C@@H]1[C@@H](NC(=O)c2cc3c(Br)ccnc3[nH]2)C[C@H]2C[C@@H]1C2(C)C [MPL-012, 4-bromo-N-[(1S,2S,3S,5R)-2,6,6-trimethylnorpinan-3-yl]-1H-pyrrolo[2,3-b]pyridine-2-carboxamide] | 0.048 µg/mL (≈ 0.128 µM) | 4 µg/mL (≈ 10.6 µM) |
| Cc1nc2[nH]c(C(=O)NC3CC[Si](C)(C)C3)cc2c(F)c1F (stereo not shown) [MPL-295, N-(1,1-dimethylsilolan-3-yl)-4,5-difluoro-6-methyl-1H-pyrrolo[2,3-b]pyridine-2-carboxamide] | 0.024 µg/mL (≈ 0.0742 µM) | 0.28 µg/mL (≈ 0.866 µM) |
| Cc1nc2[nH]c(C(=O)NC3CCC(C)(C)CC3)cc2c(F)c1F [MPL-067, N-(4,4-dimethylcyclohexyl)-4,5-difluoro-6-methyl-1H-pyrrolo[2,3-b]pyridine-2-carboxamide] | 0.01 µg/mL (≈ 0.0311 µM) | 0.25 µg/mL (≈ 0.778 µM) |
| Cc1nc2[nH]c(C(=O)NC3CC[Si](C)(C)CC3)cc2c(F)c1C [MPL-471, N-(1,1-dimethylsilinan-4-yl)-4-fluoro-5,6-dimethyl-1H-pyrrolo[2,3-b]pyridine-2-carboxamide] | 0.069 µg/mL (≈ 0.207 µM) | 1 µg/mL (≈ 3 µM) |
| COc1ccc2cc(C(=O)N[C@@H]3CCC[Si](C)(C)CC3)[nH]c2n1 (single isomer, unassigned) [MPL-466B] | > 1 µg/mL | 8 µg/mL (≈ 24.1 µM) |
| Cc1nc2[nH]c(C(=O)NC3CC[Si](C)(C)CC3)cc2c(F)c1Cl [MPL-232, 5-chloro-N-(1,1-dimethylsilinan-4-yl)-4-fluoro-6-methyl-1H-pyrrolo[2,3-b]pyridine-2-carboxamide] | 0.03 µg/mL (≈ 0.0848 µM) | 0.38 µg/mL (≈ 1.07 µM) |
| COc1cc(F)nc2[nH]c(C(=O)NC3CC[Si](C)(C)CC3)cc12 [MPL-200, N-(1,1-dimethylsilinan-4-yl)-6-fluoro-4-methoxy-1H-pyrrolo[2,3-b]pyridine-2-carboxamide] | 0.072 µg/mL (≈ 0.215 µM) | 16 µg/mL (≈ 47.7 µM) |
| Cc1nc2[nH]c(C(=O)NC3CC[Si](C)(C)CC3)cc2c(Cl)c1Cl [MPL-230, 4,5-dichloro-N-(1,1-dimethylsilinan-4-yl)-6-methyl-1H-pyrrolo[2,3-b]pyridine-2-carboxamide] | 0.004 µg/mL (≈ 0.0108 µM) | 16 µg/mL (≈ 43.2 µM) |
| COc1ccc2cc(C(=O)NC3CC[Si](C)(C)CC3)[nH]c2n1 [MPL-387, N-(1,1-dimethylsilinan-4-yl)-6-methoxy-1H-pyrrolo[2,3-b]pyridine-2-carboxamide] | 0.163 µg/mL (≈ 0.513 µM) | 0.5 µg/mL (≈ 1.57 µM) |
| C[Si]1(C)CCC(NC(=O)c2cc3ccc(OC4CC4)nc3[nH]2)CC1 [MPL-464, 6-(cyclopropoxy)-N-(1,1-dimethylsilinan-4-yl)-1H-pyrrolo[2,3-b]pyridine-2-carboxamide] | 0.124 µg/mL (≈ 0.361 µM) | 1 µg/mL (≈ 2.91 µM) |
| Cc1cc(Cl)c2cc(C(=O)NC3CCC[Si](C)(C)CC3)[nH]c2n1 (stereo not shown) [MPL-274, 4-chloro-N-(1,1-dimethylsilepan-4-yl)-6-methyl-1H-pyrrolo[2,3-b]pyridine-2-carboxamide] | 0.01 µg/mL (≈ 0.0286 µM) | 0.75 µg/mL (≈ 2.14 µM) |
| Cc1cc(F)c2cc(C(=O)NC3CCCCCCC3)[nH]c2n1 [MPL-044, N-cyclooctyl-4-fluoro-6-methyl-1H-pyrrolo[2,3-b]pyridine-2-carboxamide] | 0.013 µg/mL (≈ 0.0429 µM) | 2 µg/mL (≈ 6.59 µM) |
| COc1ccc2cc(C(=O)NC3CCC(C)(C)CC3)[nH]c2n1 [MPL-453, N-(4,4-dimethylcyclohexyl)-6-methoxy-1H-pyrrolo[2,3-b]pyridine-2-carboxamide] | 0.284 µg/mL (≈ 0.942 µM) | 0.5 µg/mL (≈ 1.66 µM) |
| Cc1nc2[nH]c(C(=O)NC3CC[Si](C)(C)CC3)cc2c(C)c1Cl [MPL-239, 5-chloro-N-(1,1-dimethylsilinan-4-yl)-4,6-dimethyl-1H-pyrrolo[2,3-b]pyridine-2-carboxamide] | 0.0078 µg/mL (≈ 0.0223 µM) | 16 µg/mL (≈ 45.7 µM) |
| COc1ccc2cc(C(=O)N[C@H]3CCC[Si](C)(C)CC3)[nH]c2n1 (single isomer, unassigned) [MPL-466A] | 0.042 µg/mL (≈ 0.127 µM) | 0.25 µg/mL (≈ 0.754 µM) |
| Cc1nc2[nH]c(C(=O)NC3CC[Si](C)(C)CC3)cc2c(F)c1F [MPL-229, N-(1,1-dimethylsilinan-4-yl)-4,5-difluoro-6-methyl-1H-pyrrolo[2,3-b]pyridine-2-carboxamide] | 0.0058 µg/mL (≈ 0.0172 µM) | 0.12 µg/mL (≈ 0.356 µM) |
| Cc1cc(Cl)c2cc(C(=O)N[C@H]3C[C@H]4C[C@@H]([C@@H]3C)C4(C)C)[nH]c2n1 [MPL-045, 4-chloro-6-methyl-N-[(1S,2S,3S,5R)-2,6,6-trimethylnorpinan-3-yl]-1H-pyrrolo[2,3-b]pyridine-2-carboxamide] | 0.069 µg/mL (≈ 0.199 µM) | 2 µg/mL (≈ 5.78 µM) |
| Cc1cc(Cl)c2cc(C(=O)NC3CC[Si](C)(C)CC3)[nH]c2n1 [MPL-208, 4-chloro-N-(1,1-dimethylsilinan-4-yl)-6-methyl-1H-pyrrolo[2,3-b]pyridine-2-carboxamide] | 0.0045 µg/mL (≈ 0.0134 µM) | 1 µg/mL (≈ 2.98 µM) |
| Cc1cc2cc(C(=O)N[C@H]3C[C@H]4C[C@@H]([C@@H]3C)C4(C)C)[nH]c2cn1 [MPL-124, 5-methyl-N-[(1S,2S,3S,5R)-2,6,6-trimethylnorpinan-3-yl]-1H-pyrrolo[2,3-c]pyridine-2-carboxamide] | 3.1 µg/mL (≈ 9.95 µM) | 16 µg/mL (≈ 51.4 µM) |

| Compound | MIC [1] | MIC [2] |
| --- | --- | --- |
| Cc1nc2[nH]c(C(=O)N[C@H]3CC[Si](C)(C)C3)cc2c(F)c1F (single isomer, unassigned) [MPL-295B] | < 0.004 µg/mL | 0.12 µg/mL (≈ 0.371 µM) |
| Cc1nc2[nH]c(C(=O)NC3CCC[Si](C)(C)CC3)cc2c(F)c1Cl (stereo not shown) [MPL-316, 5-chloro-N-(1,1-dimethylsilepan-4-yl)-4-fluoro-6-methyl-1H-pyrrolo[2,3-b]pyridine-2-carboxamide] | 0.015 µg/mL (≈ 0.0408 µM) | 0.16 µg/mL (≈ 0.435 µM) |
| Cc1nc(F)cc2cc(C(=O)NC3CCC(C)(C)CC3)[nH]c12 [MPL-135, N-(4,4-dimethylcyclohexyl)-5-fluoro-7-methyl-1H-pyrrolo[2,3-c]pyridine-2-carboxamide] | 1.5 µg/mL (≈ 4.94 µM) | 8 µg/mL (≈ 26.4 µM) |
| O=C(NC1CCCCCCC1)c1cc2c(Cl)cncc2[nH]1 [MPL-034, 4-chloro-N-cyclooctyl-1H-pyrrolo[2,3-c]pyridine-2-carboxamide] | 0.25 µg/mL (≈ 0.818 µM) | 2 µg/mL (≈ 6.54 µM) |
| CC1(C)C2CCC1(C)C(NC(=O)c1cc3c(F)cncc3[nH]1)C2 (stereo not shown) [MPL-188, 4-fluoro-N-(1,7,7-trimethylnorbornan-2-yl)-1H-pyrrolo[2,3-c]pyridine-2-carboxamide] |  | 8 µg/mL (≈ 25.4 µM) |
| CC1(C)[C@H]2C[C@H](NC(=O)c3cc4c(C(F)(F)F)ccnc4[nH]3)[C@](C)(O)[C@@H]1C2 [MPL-216, N-[(1R,2R,3S,5R)-2-hydroxy-2,6,6-trimethyl-norpinan-3-yl]-4-(trifluoromethyl)-1H-pyrrolo[2,3-b]pyridine-2-carboxamide] | 0.041 µg/mL (≈ 0.107 µM) |  |
| Cc1nc2[nH]c(C(=O)NC3CC[Si](C)(C)CC3)cc2c(C)c1F [MPL-237, N-(1,1-dimethylsilinan-4-yl)-5-fluoro-4,6-dimethyl-1H-pyrrolo[2,3-b]pyridine-2-carboxamide] | 0.047 µg/mL (≈ 0.141 µM) |  |
| Cc1cc(Cl)c2cc(C(=O)N[C@H]3CC[Si](C)(C)C3)[nH]c2n1 (single isomer, unassigned) [MPL-401B] | 0.007 µg/mL (≈ 0.0217 µM) |  |
| C[C@@H]1[C@@H](NC(=O)c2cc3cc(Cl)ncc3[nH]2)C[C@H]2C[C@@H]1C2(C)C [MPL-126, 5-chloro-N-[(1S,2S,3S,5R)-2,6,6-trimethylnorpinan-3-yl]-1H-pyrrolo[2,3-c]pyridine-2-carboxamide] | 3.1 µg/mL (≈ 9.34 µM) |  |
| C[Si]1(C)CCC(NC(=O)c2cc3cc(-c4ccccc4)cnc3[nH]2)CC1 [MPL-391, N-(1,1-dimethylsilinan-4-yl)-5-phenyl-1H-pyrrolo[2,3-b]pyridine-2-carboxamide] | 0.051 µg/mL (≈ 0.14 µM) |  |
| C[Si]1(C)CCC(NC(=O)c2cc3cc(-c4cccnc4)cnc3[nH]2)CC1 [MPL-392, N-(1,1-dimethylsilinan-4-yl)-5-(3-pyridyl)-1H-pyrrolo[2,3-b]pyridine-2-carboxamide] | 0.464 µg/mL (≈ 1.27 µM) |  |
| C[Si]1(C)CCC(NC(=O)c2cc3cc(-c4ccccc4)ncc3[nH]2)CC1 [MPL-445] | 0.119 µg/mL (≈ 0.327 µM) |  |
| CNc1ccnc2[nH]c(C(=O)NC3CCCCCCC3)cc12 [MPL-040, N-cyclooctyl-4-(methylamino)-1H-pyrrolo[2,3-b]pyridine-2-carboxamide] | 6.2 µg/mL (≈ 20.6 µM) |  |
| Cc1ncc2[nH]c(C(=O)NC3CC[Si](C)(C)CC3)c(C)c2c1F [MPL-352, N-(1,1-dimethylsilinan-4-yl)-4-fluoro-3,5-dimethyl-1H-pyrrolo[2,3-c]pyridine-2-carboxamide] | 0.122 µg/mL (≈ 0.366 µM) |  |
| O=C(NC1CCC2(CCC2)CC1)c1cc2c(Cl)ccnc2[nH]1 [MPL-001, 4-chloro-N-spiro[3.5]nonan-7-yl-1H-pyrrolo[2,3-b]pyridine-2-carboxamide] | 0.03 µg/mL (≈ 0.0944 µM) |  |
| Cc1nc2[nH]c(C(=O)N[C@H]3CCC[Si](C)(C)CC3)cc2c(F)c1Cl (single isomer, unassigned) [MPL-316B] | 0.25 µg/mL (≈ 0.679 µM) |  |
| Cc1nc2[nH]c(C(=O)NC3CCCC[Si](C)(C)CC3)cc2c(F)c1Cl (stereo not shown) [MPL-292, 5-chloro-N-(1,1-dimethylsilocan-4-yl)-4-fluoro-6-methyl-1H-pyrrolo[2,3-b]pyridine-2-carboxamide] | 0.0271 µg/mL (≈ 0.071 µM) |  |
| CC1(C)[C@H]2C[C@H](NC(=O)c3cc4c(F)ccnc4[nH]3)[C@](C)(O)[C@@H]1C2 [MPL-213, 4-fluoro-N-[(1R,2R,3S,5R)-2-hydroxy-2,6,6-trimethyl-norpinan-3-yl]-1H-pyrrolo[2,3-b]pyridine-2-carboxamide] | 0.046 µg/mL (≈ 0.139 µM) |  |
| O=C(NC1CCCCCCC1)c1cc2c(C3CC3)ccnc2[nH]1 [MPL-039, N-cyclooctyl-4-cyclopropyl-1H-pyrrolo[2,3-b]pyridine-2-carboxamide] | 0.39 µg/mL (≈ 1.25 µM) |  |
| O=C(NC1CC[Si]2(CCCCC2)CC1)c1cc2c(F)cncc2[nH]1 [MPL-259, 4-fluoro-N-(6-silaspiro[5.5]undecan-3-yl)-1H-pyrrolo[2,3-c]pyridine-2-carboxamide] | 0.054 µg/mL (≈ 0.156 µM) |  |
